Entries after “also recorded” stand apart in the source; their conditions may differ.
Columns and labels:
cytochrome c [1] = target: T1, cytochrome c (Equus caballus, UniProt P00004); test: Fluorescence quenching of labelled peptides by cytochrome c; format: binding, horse; design: from tissue; host or cells: horse heart; details: additions of 75 μg/ml BSA
cytochrome c [2] = target: T1, cytochrome c; test: Cyclic voltammetry of cytochrome c; format: biochemical
[3] = tested on: isolated rat kidney mitochondria; test: O2 consumption in isolated mitochondria; format: biochemical
Protocol: (§1) Fresh mitochondria were isolated from rat kidney as described previously. Electron flux was measured by O2 consumption (Oxygraph Clark electrode) as previously described using different substrates for C1 (glutamate/malate), C2 (succinate), and C3 (TMPD/ascorbate). Assays were carried out under low substrate conditions in order to avoid saturating the enzyme reactions. ATP production in isolated mitochondria was determined kinetically using the luciferase method (Biotherma) in a 96-well luminescence plate reader (Molecular Devices). The initial maximal rate for ATP synthesis was determined over the first minute.
Oxygen consumption of isolated rat kidney mitochondria was determined using the Oxygraph (FIG. 5). Rates of respiration were measured in the presence of different concentrations of SS-31 in state 2 (400 μM ADP only), state 3 (400 μM ADP and 500 μM substrates) and state 4 (substrates only). All experiments were done in triplicate with n=4−7. […] Accordingly, aromatic-cationic peptides of the present disclosure are useful for promoting electron transfer to oxygen without uncoupling mitochondria, increasing O2 consumption, and treating diseases or conditions related to dysregulation of O2 consumption in mitochondria.
(§2) SS-20 or SS-31 was added at 100 μM concentrations to isolated mitochondria in respiration buffer containing 0.5 mM succinate (complex II substrate) and 400 μM ADP. Similar increases in O2 consumption were observed when low concentrations of complex I substrates (glutamate/malate) were used (data not shown). […] Accordingly, targeting SS-20 and SS-31 to the IMM can facilitate electron flux in the electron transport chain and improve ATP synthesis, especially under conditions of reduced substrate supply.
SS-20 or SS-31 was added at 10 μM or 100 μM concentrations to isolated mitochondria in respiration buffer containing glutamate/malate (complex I substrate), 0.5 mM succinate (complex II substrate) or 3 μM TMPD/1 mM ascorbate (direct reductant of cytochrome c). 400 μM ADP was added to initiate State 3 respiration.

[4] = target: T2, horse radish peroxidase (HRP) (Armoracia rusticana, UniProt P00433); test: Horseradish peroxidase activity (Amplex Red); format: biochemical; details: data not shown
T2 sequence (P00433 31-338 limits assumed): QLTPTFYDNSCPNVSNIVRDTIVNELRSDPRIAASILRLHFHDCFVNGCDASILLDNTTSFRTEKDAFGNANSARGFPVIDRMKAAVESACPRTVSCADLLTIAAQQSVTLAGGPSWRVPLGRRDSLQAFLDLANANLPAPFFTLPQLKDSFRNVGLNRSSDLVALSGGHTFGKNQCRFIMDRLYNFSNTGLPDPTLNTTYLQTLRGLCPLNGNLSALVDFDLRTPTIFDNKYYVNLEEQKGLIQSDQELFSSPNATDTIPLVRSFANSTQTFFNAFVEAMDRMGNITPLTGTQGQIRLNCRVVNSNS

isolated mitochondria = test: ATP synthesis in isolated mitochondria; format: biochemical, rat
Protocol: as §1
The rate of mitochondrial ATP synthesis was determined by measuring ATP in respiration buffer collected from isolated mitochondria 1 min after addition of […] (FIG. 6). ATP was assayed by HPLC. All experiments were carried out in triplicate, with n=3. […] Accordingly, aromatic-cationic peptides of the present disclosure are useful for increasing ATP synthesis in mitochondria and for treating diseases or disorder characterized by dysregulation of ATP synthesis.
as §2
Increase in electron flux in the electron transport chain can either result in increase in ATP synthesis or increase in electron leak and generation of free radicals. ATP synthesis in isolated mitochondria was assayed by HPLC. […] Accordingly, aromatic-cationic peptides of the present disclosure are useful for increasing ATP synthesis in mitochondria and for treating diseases or disorder characterized by dysregulation of ATP synthesis.

cytochrome c [5] = target: T1, cytochrome c; test: Circular dichroism of Soret band of cytochrome c; format: biochemical
Protocol: Circular dichroism (Olis spectropolarimeter, DSM20) was carried out to monitor Soret band (negative peak at 415 nm), as a probe for the π-π* heme environment in cytochrome c (FIG. 4). […] The increase in π-π* interaction around the heme would enhance electron tunneling which would be favorable for electron diffusion. Accordingly, aromatic-cationic peptides of the present disclosure are useful for the prevention or treatment of diseases or disorders characterized by dysregulation of cytochrome c, and to induce novel π-π interactions around cytochrome c heme.

cytochrome c [6] = target: T1, cytochrome c; test: Cytochrome c reduction kinetics (absorption spectroscopy); format: biochemical
Protocol: Increasing amounts of aromatic-cationic peptides were added to a solution of oxidized cytochrome c. The formation of reduced cytochrome c was monitored by absorbance at […]. The rate of cytochrome c reduction was determined by non-linear analysis (Prizm software).
Time-resolved UV-Visible absorption spectroscopy was used to study the electron transport process of cytochrome c in the presence of peptides. Reduced cytochrome c was monitored by absorbance at a broad-band spectral range (200-1100 nm). The absorption changes were recorded with a UV/Visible spectrophotometer (Ultrospec 3300 pro, GE) in quartz cells with path lengths of 1 or 2 mm. N-acetylcysteine (NAC) and glutathione were used as electron donors to reduce oxidized cytochrome c. The rate constant of cytochrome c reduction was estimated by adding various concentrations of peptides. The dose dependence of the peptides was correlated to the cytochrome c reduction kinetics.
Absorption spectroscopy (UltroSpec 3300 Pro; 220-1100 nm) was used to determine if SS-31 modulates cytochrome c reduction (FIG. 1). Reduction of cytochrome c with glutathione is associated with multiple shifts in the Q band (450-650 nm), with a prominent shift at 550 nm. […] Accordingly, the aromatic-cationic peptides of the present disclosure are useful for altering the structure and oxidation state of cytochrome c, and are useful for the prevention or treatment of diseases or disorders characterized by dysregulation of cytochrome c.
Reduction of cytochrome c was monitored by increase in absorbance at 550 nm. […] Similar results were obtained using N-acetylcysteine (NAC) as a reducing agent (not shown). […] Accordingly, aromatic-cationic peptides of the present disclosure are useful for the prevention or treatment of diseases or disorders characterized by dysregulation of cytochrome c and are useful for facilitating cytochrome c reduction.

T1 sequence (P00004 2-105 limits assumed): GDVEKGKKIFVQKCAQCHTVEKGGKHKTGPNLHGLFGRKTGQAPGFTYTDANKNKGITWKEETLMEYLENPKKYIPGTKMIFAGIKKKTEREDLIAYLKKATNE

Substance	reversal of cytochrome c quenching by BSA (cytochrome c [1])	reduction/oxidation potentials of cytochrome c (cytochrome c [2])	current of cytochrome c reduction and oxidation processes (cytochrome c [2]; Au working electrode, Ag/AgCl reference)	increase of current (electron diffusion rate) (cytochrome c [2]; cytochrome c:SS-31=1:2, TBE buffer)	O2 consumption in state 3 respiration ([3]; 10 μM or 100 μM peptide, complex I or complex II substrates or TMPD/ascorbate, 400 μM ADP)	electron flux measured by O2 consumption ([3]; 100 μM peptide, 0.5 mM succinate, 400 μM ADP)	electron transfer to oxygen (rates of respiration) ([3]; state 2, state 3 and state 4, different concentrations of SS-31)	HRP activity [4]	rate of ATP synthesis (isolated mitochondria; 1 min after addition of 400 mM ADP, HPLC)	ATP synthesis (isolated mitochondria; assayed by HPLC (Example 18))	rate of ATP production (isolated mitochondria; mitochondria energized with low concentrations of succinate)	position of Soret band negative peak after peptide (415 nm before) (cytochrome c [5])	rate of NAC-induced cytochrome c reduction (cytochrome c [6]; N-acetylcysteine (NAC) as reducing agent)	rate (kinetics) of cytochrome c reduction (cytochrome c [6]; glutathione (GSH) as reducing agent, absorbance at 550 nm)	reduction of cytochrome c by peptide alone (cytochrome c [6]; peptide alone at 100 μM)	spectral weight shift in Q band of cytochrome c (cytochrome c [6]; reduction of cytochrome c with glutathione)
2′,6′-Dmt-D-Arg-Phe-(atn)Dap-NH2 [SS-19]	did not reverse quenching															
D-Arg-2′,6′-Dmt-Lys-Phe-NH2 [SS-31]		does not alter reduction/oxidation potentials	increased current for both reduction and oxidation processes of cytochrome c	~200%	increased O2 consumption in state 3 respiration	promote electron flux	promoted electron transfer to oxygen without uncoupling mitochondria	no effect	dose-dependently increased the rate of ATP synthesis	dose-dependently increased ATP synthesis	significant increase in the rate of ATP production	440 nm	dose-dependently increased the rate of NAC-induced cytochrome c reduction	increased the rate of cytochrome c reduction; also recorded: accelerate the kinetics of cytochrome c reduction	did not reduce cytochrome c	significant spectral weight shift at 550 nm

From US10808008B2, “Aromatic-cationic peptides and uses of same” (Cornell University, priority 2012, dated 2020)
